In brackets after ≈: the same amount, converted by molar mass. Activity calls are given as the source filed them. No cut-off for these calls is given here.
Key:
DNA polymerase eta = biological target: T1, DNA polymerase eta (Homo sapiens, UniProt Q9Y253); assay: Inhibition of C-terminal 6xHis-tagged human DNA polymerase eta (1 to 511 residues) expressed in Escherichia coli BL21 DE3 using 5'-IRD700-GCAGGTCGACTCCAAAG-3' primer/ 5'-TCGGTACCGGGTTAGCCTTTGGAGTCGACCTGC-3' template as DNA substrate incubated for 60 mins in presence of Mg2+ by bromophenol blue staining based assay
T1 sequence (Q9Y253 whole entry): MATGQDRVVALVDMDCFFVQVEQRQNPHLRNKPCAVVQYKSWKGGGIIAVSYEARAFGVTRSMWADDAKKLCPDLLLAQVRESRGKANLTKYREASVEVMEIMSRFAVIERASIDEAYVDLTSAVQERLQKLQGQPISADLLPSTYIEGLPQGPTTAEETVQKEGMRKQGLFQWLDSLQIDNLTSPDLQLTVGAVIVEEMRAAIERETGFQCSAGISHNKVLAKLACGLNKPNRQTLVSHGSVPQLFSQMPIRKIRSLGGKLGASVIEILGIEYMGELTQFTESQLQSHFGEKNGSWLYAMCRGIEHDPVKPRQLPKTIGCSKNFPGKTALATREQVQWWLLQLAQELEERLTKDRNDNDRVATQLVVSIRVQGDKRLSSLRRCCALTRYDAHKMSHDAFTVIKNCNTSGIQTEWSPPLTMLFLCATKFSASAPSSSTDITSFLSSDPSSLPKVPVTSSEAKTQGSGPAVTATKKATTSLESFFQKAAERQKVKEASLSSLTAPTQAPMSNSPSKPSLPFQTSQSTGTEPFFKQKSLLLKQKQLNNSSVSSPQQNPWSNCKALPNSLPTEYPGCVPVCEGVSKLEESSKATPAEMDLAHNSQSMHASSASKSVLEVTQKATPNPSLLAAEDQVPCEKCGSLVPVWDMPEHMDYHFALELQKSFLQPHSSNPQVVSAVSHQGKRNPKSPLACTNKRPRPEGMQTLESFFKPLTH

[1] = Kinetic solubility of compound in neutral buffer at pH 7.4 at 250 uM measured after 24 hrs by UPLC/MS analysis; format: physicochemical; details: read-out: Kinetic_solubility
[2] = Metabolic stability in mouse plasma assessed as half life at 2 uM incubated upto 120 mins by UPLC/MS analysis; format: ADME, cell-free
[3] = Metabolic stability in mouse liver microsome assessed as half life at 4.6 uM incubated upto 60 mins by LC/MS-MS analysis; format: ADME; details: liver microsomes
A549 [4] = assay: Antiproliferative activity against human A549 cells incubated for 48 hrs by MTT assay; format: functional; details: read-out: LD50 (the source's name)
A-375 [5] = assay: Antiproliferative activity against human A-375 cells incubated for 48 hrs by MTT assay; format: functional; details: read-out: LD50 (the source's name)
OVCAR-3 [6] = assay: Antiproliferative activity against human OVCAR-3 cells incubated for 48 hrs by MTT assay; format: functional; details: read-out: LD50 (the source's name)
[7] = (§1) Antiproliferative activity against HEK293 cells incubated for 48 hrs by MTT assay; format: toxicity, cell-based; details: human, HEK293 cells, read-out: LD50
A549 [8] = assay: Antiproliferative activity against human A549 cells assessed as cisplatin LD50 at 50 uM incubated for 48 hrs in presence of cisplatin by MTT assay; format: functional; details: read-out: LD50 (the source's name)
A549 [9] = assay: Antiproliferative activity against human A549 cells assessed as cisplatin LD50 at 100 uM incubated for 48 hrs in presence of cisplatin by MTT assay; format: functional; details: read-out: LD50 (the source's name)
A-375 [10] = assay: Antiproliferative activity against human A-375 cells assessed as cisplatin LD50 at 35 uM incubated for 48 hrs in presence of cisplatin by MTT assay; format: functional; details: read-out: LD50 (the source's name)
A-375 [11] = assay: Antiproliferative activity against human A-375 cells assessed as cisplatin LD50 at 50 uM incubated for 48 hrs in presence of cisplatin by MTT assay; format: functional; details: read-out: LD50 (the source's name)
OVCAR-3 [12] = assay: Antiproliferative activity against human OVCAR-3 cells assessed as cisplatin LD50 at 10 uM incubated for 48 hrs in presence of cisplatin by MTT assay; format: functional; details: read-out: LD50 (the source's name)
OVCAR-3 [13] = assay: Antiproliferative activity against human OVCAR-3 cells assessed as cisplatin LD50 at 50 uM incubated for 48 hrs in presence of cisplatin by MTT assay; format: functional; details: read-out: LD50 (the source's name)
OVCAR-3 [14] = assay: Antiproliferative activity against human OVCAR-3 cells assessed as cisplatin LD50 at 75 uM incubated for 48 hrs in presence of cisplatin by MTT assay; format: functional; details: read-out: LD50 (the source's name)
A-375 [15] = assay: Synergistic antiproliferative activity against human A-375 cells assessed as combination index at 35 uM incubated for 48 hrs in presence of 12.5 uM cisplatin by MTT assay; format: functional
A-375 [16] = assay: Synergistic antiproliferative activity against human A-375 cells assessed as combination index at 50 uM incubated for 48 hrs in presence of 12.5 uM cisplatin by MTT assay; format: functional
A-375 [17] = assay: Synergistic antiproliferative activity against human A-375 cells assessed as combination index at 35 uM incubated for 48 hrs in presence of 6 uM cisplatin by MTT assay; format: functional
A-375 [18] = assay: Synergistic antiproliferative activity against human A-375 cells assessed as combination index at 50 uM incubated for 48 hrs in presence of 6 uM cisplatin by MTT assay; format: functional
A549 [19] = assay: Synergistic antiproliferative activity against human A549 cells assessed as combination index at 50 uM incubated for 48 hrs in presence of 12.5 uM cisplatin by MTT assay; format: functional
A549 [20] = assay: Synergistic antiproliferative activity against human A549 cells assessed as combination index at 100 uM incubated for 48 hrs in presence of 12.5 uM cisplatin by MTT assay; format: functional
A549 [21] = assay: Synergistic antiproliferative activity against human A549 cells assessed as combination index at 50 uM incubated for 48 hrs in presence of 6 uM cisplatin by MTT assay; format: functional
A549 [22] = assay: Synergistic antiproliferative activity against human A549 cells assessed as combination index at 100 uM incubated for 48 hrs in presence of 6 uM cisplatin by MTT assay; format: functional
OVCAR-3 [23] = assay: Synergistic antiproliferative activity against human OVCAR-3 cells assessed as combination index at 50 uM incubated for 48 hrs in presence of 12.5 uM cisplatin by MTT assay; format: functional
OVCAR-3 [24] = assay: Synergistic antiproliferative activity against human OVCAR-3 cells assessed as combination index at 75 uM incubated for 48 hrs in presence of 12.5 uM cisplatin by MTT assay; format: functional
OVCAR-3 [25] = assay: Synergistic antiproliferative activity against human OVCAR-3 cells assessed as combination index at 50 uM incubated for 48 hrs in presence of 6 uM cisplatin by MTT assay; format: functional
OVCAR-3 [26] = assay: Synergistic antiproliferative activity against human OVCAR-3 cells assessed as combination index at 75 uM incubated for 48 hrs in presence of 6 uM cisplatin by MTT assay; format: functional
A-375 [27] = assay: Upregulation of phosphorylated gamma-H2AX level in human A375 cells at 30 uM incubated for 48 hrs by in presence of cisplatin by Western blot analysis; format: functional, cell-based
A-375 [28] = assay: Upregulation of phosphorylated gamma-H2AX level in human A375 cells incubated for 48 hrs by Western blot analysis; format: functional, cell-based; details: dose 30.0 µM
OVCAR-3 [29] = assay: Upregulation of phosphorylated gamma-H2AX level in human OVCAR-3 cells incubated for 48 hrs by Western blot analysis; format: functional, cell-based; details: dose 30.0 µM
[30] = Upregulation of phosphorylated gamma-H2AX level in human A375 cells assessed as fold increase in activity at 20 uM incubated for 24 hrs by in presence of cisplatin by immunofluorescence based microscopy relative to cisplatin; format: functional, A-375
[31] = Upregulation of phosphorylated gamma-H2AX level in human OVCAR-3 cells assessed as fold increase in activity at 20 uM incubated for 24 hrs by in presence of cisplatin by immunofluorescence based microscopy relative to cisplatin; format: functional
HEK293 = assay: as §1; format: toxicity, cell-based; details: human, hek293, 48 h
[32] = Antiproliferative activity against HEK293 cells incubated for 72 hrs by MTT assay; format: toxicity, cell-based; details: human, read-out: LD50
A549 [33] = assay: Antiproliferative activity against human A549 cells assessed as cisplatin LD50 at 20 uM incubated for 48 hrs in presence of cisplatin by MTT assay; format: functional; details: read-out: LD50 (the source's name)
A549 [34] = assay: Antiproliferative activity against human A549 cells assessed as cisplatin LD50 at 30 uM incubated for 48 hrs in presence of cisplatin by MTT assay; format: functional; details: read-out: LD50 (the source's name)
A-375 [35] = assay: Antiproliferative activity against human A-375 cells assessed as cisplatin LD50 at 10 uM incubated for 48 hrs in presence of cisplatin by MTT assay; format: functional; details: read-out: LD50 (the source's name)
A-375 [36] = assay: Antiproliferative activity against human A-375 cells assessed as cisplatin LD50 at 20 uM incubated for 48 hrs in presence of cisplatin by MTT assay; format: functional; details: read-out: LD50 (the source's name)
A-375 [37] = assay: Antiproliferative activity against human A-375 cells assessed as cisplatin LD50 at 30 uM incubated for 48 hrs in presence of cisplatin by MTT assay; format: functional; details: read-out: LD50 (the source's name)
OVCAR-3 [38] = assay: Antiproliferative activity against human OVCAR-3 cells assessed as cisplatin LD50 at 5 uM incubated for 48 hrs in presence of cisplatin by MTT assay; format: functional; details: read-out: LD50 (the source's name)
A-375 [39] = assay: Additive antiproliferative activity against human A-375 cells assessed as combination index at 10 uM incubated for 48 hrs in presence of 6 uM cisplatin by MTT assay; format: functional
A549 [40] = assay: Antagonistic antiproliferative activity against human A549 cells assessed as combination index at 20 uM incubated for 48 hrs in presence of 12.5 uM cisplatin by MTT assay; format: functional
A549 [41] = assay: Additive antiproliferative activity against human A549 cells assessed as combination index at 30 uM incubated for 48 hrs in presence of 12.5 uM cisplatin by MTT assay; format: functional
A549 [42] = assay: Additive antiproliferative activity against human A549 cells assessed as combination index at 20 uM incubated for 48 hrs in presence of 6 uM cisplatin by MTT assay; format: functional
A549 [43] = assay: Additive antiproliferative activity against human A549 cells assessed as combination index at 30 uM incubated for 48 hrs in presence of 6 uM cisplatin by MTT assay; format: functional
OVCAR-3 [44] = assay: Antagonistic antiproliferative activity against human OVCAR-3 cells assessed as combination index at 10 uM incubated for 48 hrs in presence of 12.5 uM cisplatin by MTT assay; format: functional
OVCAR-3 [45] = assay: Additive antiproliferative activity against human OVCAR-3 cells assessed as combination index at 10 uM incubated for 48 hrs in presence of 6 uM cisplatin by MTT assay; format: functional

O=c1c(OCCCO)c(-c2ccc(O)c(O)c2)oc2cc(O)cc(O)c12
IC50 (DNA polymerase eta): 14.7 µM
solubility kinetic at 24 h, 250 µM [1]: 231 µM (≈ 83.2 µg/mL)
half-life at 2 µM [2]: 1.5 h
half-life at 4.6 µM [3]: > 1 h
CC50 (A549 [4]): > 100 µM
CC50 (A-375 [5]): > 100 µM
CC50 (OVCAR-3 [6]): > 100 µM
CC50 at 48 h [7]: > 100 µM
CC50 (A549 [8]): 19.7 µM
CC50 (A549 [9]): 9.4 µM
CC50 (A-375 [10]): 2.6 µM
CC50 (A-375 [11]): 1 µM
CC50 (OVCAR-3 [12]): 4.8 µM
CC50 (OVCAR-3 [13]): 2.8 µM
CC50 (OVCAR-3 [14]): 0.27 µM
CI (A-375 [15]): 0.78
CI (A-375 [16]): 0.23
CI (A-375 [17]): 0.66
CI (A-375 [18]): 0.27
CI (A549 [19]): 0.8
CI (A549 [20]): 0.58
CI (A549 [21]): 0.78
CI (A549 [22]): 0.6
CI (OVCAR-3 [23]): 0.78
CI (OVCAR-3 [24]): 0.72
CI (OVCAR-3 [25]): 0.52
CI (OVCAR-3 [26]): 0.5
Activity (A-375 [27]): Active
Activity (A-375 [28]): Dose-Dependent Effect
Activity (OVCAR-3 [29]): Dose-Dependent Effect
fold change (FC) [30]: >2
fold change (FC) [31]: >2

COc1c(-c2ccc(O)c(O)c2)oc2cc(O)cc(O)c2c1=O [3-O-METHYLQUERCETIN]
IC50 (DNA polymerase eta): 10.8 µM
solubility kinetic at 24 h, 250 µM [1]: 229 µM (≈ 72.4 µg/mL)
half-life at 2 µM [2]: > 2 h
half-life at 4.6 µM [3]: > 1 h
CC50 (A549 [4]): 60 µM
CC50 (A-375 [5]): 29 µM
CC50 (OVCAR-3 [6]): 5.2 µM
Activity (HEK293): Non-Toxic
CC50 at 72 h [32]: 30.5 µM
CC50 (A549 [33]): 11.9 µM
CC50 (A549 [34]): 7.4 µM
CC50 (A-375 [35]): 2 µM
CC50 (A-375 [36]): 0.5 µM
CC50 (A-375 [37]): 0.4 µM
CC50 (OVCAR-3 [12]): 5.8 µM
CC50 (OVCAR-3 [38]): 4.8 µM
CI (A-375 [16]): 0.78
CI (A-375 [39]): 0.96
CI (A549 [40]): 1.24
CI (A549 [41]): 0.94
CI (A549 [42]): 1.03
CI (A549 [43]): 0.96
CI (OVCAR-3 [44]): 2.33
CI (OVCAR-3 [45]): 1.15
fold change (FC) [30]: >2
fold change (FC) [31]: >2
